What was measured:
Type in all cases: cell-based
[1] = molecular target: T1, human cloned CHRM5 receptor (Homo sapiens, UniProt P08912); test: CHRM5 Ca++ Flux Assay (M5_CHO cells, agonist mode); conditions: for M5 FDSS PA %: Percent Activity (PA) measured to EC100 of Carbachol; for EC50: agonist mode, geometric mean if tested more than once, read-out: M5 FDSS EC50
T1 construct: expressed in transfected cells; host or cells: CHO (M5_CHO)
T1 sequence (P08912 1-532): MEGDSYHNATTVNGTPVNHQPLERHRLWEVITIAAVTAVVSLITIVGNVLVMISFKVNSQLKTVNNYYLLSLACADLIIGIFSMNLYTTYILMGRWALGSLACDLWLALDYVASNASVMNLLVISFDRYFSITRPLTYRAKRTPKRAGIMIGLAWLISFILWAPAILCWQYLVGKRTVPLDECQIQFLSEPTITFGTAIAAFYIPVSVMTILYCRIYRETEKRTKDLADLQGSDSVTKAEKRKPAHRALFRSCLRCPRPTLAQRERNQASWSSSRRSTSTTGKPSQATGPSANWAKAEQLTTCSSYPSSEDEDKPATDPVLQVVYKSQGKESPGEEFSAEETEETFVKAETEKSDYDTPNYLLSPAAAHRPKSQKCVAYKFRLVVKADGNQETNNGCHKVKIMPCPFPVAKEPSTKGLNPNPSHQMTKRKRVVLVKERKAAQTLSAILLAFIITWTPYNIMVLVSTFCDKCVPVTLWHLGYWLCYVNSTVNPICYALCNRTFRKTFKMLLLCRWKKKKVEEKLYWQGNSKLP
Experimental: (§1) The above examples were characterized by measuring the intracellular mobilization of Ca^++ ions caused by signaling events mediated by the receptor. The Intra-cellular Calcium flux levels were captured by the highly sensitive Ca^++ indicator, Calcium Assay Kit (BD Biosciences; Catalog Number 640178. The fluorescent activity from all receptors were monitored by the fluorescent imager, FDSS 7000EX (Hamamatsu) over a span of 3 minutes. The change in Calcium flux was readily captured upon activation with the muscarinic orthosteric agonist, Carbachol.
(§2) CHO-K1 cells stably expressing the human cloned CHRM3 receptor (M3_CHO cells) were grown and maintained in a monolayer culture with F12/HAM (Life Technologies) supplemented with 10% Fetal Bovine Serum, IX Pen-Strep, and 0.4 mg/mL Geneticin in a humidified atmosphere (5% CO2) at 37° C. The cultures were grown to 80-90% confluency in T150 flasks (Corning) and washed with 1×DPBS and lifted with 0.05% Trypsin (Life Technologies). The cells were then spun (1K rpm, 3 minutes) and frozen using Recovery Cell Culture Freezing Media (Gibco Technologies). Cells were stored in liquid nitrogen and thawed a day before the assay. A similar procedure was used for cells stably expressing the human cloned CHRM5 receptor (M5_CHO).
(§3) Prior to the day of the assay, stable M3_CHO or M5_CHO cells were thawed and plated on Greiner 384 well black TC treated plates at 12K cells/well in F12/DMEM supplemented with 10% FBS (Hyclone) and kept overnight in a humidified atmosphere (5% CO2) at 37° C. The next day, cells were loaded with Ca^++ dye (BD Biosciences) using Loading Buffer (HBSS +Ca/+Mg, 20 mM HEPES, 2.5 mM Probenecid) and placed back in cell incubator for a minimum of 1 hour. After incubation, the dye was replaced with Assay Buffer (HBSS −Ca/−Mg, 20 mM HEPES, 2.5 mM Probenecid) and kept at room temperature in the dark before running on cell imager. The FDSS 7000EX (Hamamatsu) was used to acquire Ca^+− traces from cells treated with 11 point dose response of compounds in triplicate in order to generate dose response curves in agonist mode. All compounds were serially diluted in DMSO then prepared in Assay Buffer for Ca^++ flux studies. The dose response curves were generated from the average of triplicate wells obtained from each data point and used a non-linear regression of four parameter dose response algorithm. The Percent Activity (PA) was measured to EC100 of Carbachol.
(§4) If an Example was tested more than once in an assay, then the values below represent the geometric mean of the results from each independent experiment.

[2] = molecular target: T2, human cloned CHRM3 receptor (Homo sapiens, UniProt P20309); test: CHRM3 Ca++ Flux Assay (M3_CHO cells, agonist mode); conditions: for M3 FDSS PA %: Percent Activity (PA) measured to EC100 of Carbachol; for EC50: agonist mode, geometric mean if tested more than once, read-out: M3 FDSS EC50
T2 construct: expressed in transfected cells; host or cells: CHO-K1 (M3_CHO)
Experimental: as §1, §2, §3, §4

[3] = molecular target: T3, Cloned human M1 receptor (CHRM1) (Homo sapiens, UniProt P11229); test: CHRM1 Ca++ Flux Assay (HEK293 M1 cells, agonist mode); conditions: for M1 FDSS PA %: Percent Activity (PA); for EC50: geometric mean if tested more than once, read-out: M1 FDSS EC50
T3 construct: expressed in transfected cells; host or cells: HEK293
T3 sequence (P11229 1-460): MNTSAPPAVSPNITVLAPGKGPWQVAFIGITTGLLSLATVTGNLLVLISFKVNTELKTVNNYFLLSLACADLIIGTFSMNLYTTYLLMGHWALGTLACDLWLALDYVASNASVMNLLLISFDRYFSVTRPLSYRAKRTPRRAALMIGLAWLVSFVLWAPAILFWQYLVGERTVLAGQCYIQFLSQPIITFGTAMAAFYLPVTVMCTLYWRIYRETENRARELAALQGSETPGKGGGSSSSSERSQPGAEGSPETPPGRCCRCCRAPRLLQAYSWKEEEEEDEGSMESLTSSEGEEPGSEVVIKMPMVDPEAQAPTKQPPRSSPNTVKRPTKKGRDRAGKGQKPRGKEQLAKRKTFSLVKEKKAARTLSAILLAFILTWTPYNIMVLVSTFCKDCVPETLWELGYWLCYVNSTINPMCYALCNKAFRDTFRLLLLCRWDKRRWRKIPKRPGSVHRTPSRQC
Experimental: as §1
Cloned human M1 receptor (CHRM1) was stably expressed in HEK293 cells and were grown and maintained in a monolayer culture with DMEM/High Glucose (Life Technologies) supplemented with 10% Fetal Bovine Serum, 1×Pen-Strep, and 0.5 mg/mL Geneticin in a humidified atmosphere (5% CO2) at 37° C. The cultures were grown to 90% confluency in T150 flasks (Corning) and washed with 1×DPBS and lifted with 0.05% Trypsin (Life Technologies). The cells were then spun (1K rpm, 3 minutes) and frozen using Recovery Cell Culture Freezing Media (Gibco Technologies). Cells were stored in liquid nitrogen and thawed a day before the assay.
Prior to the day of the assay, stable HEK293 M1 cells were thawed and plated on 384 well black walled clear bottom TC treated plates (Greiner Cat #781091) at 25K cells/well with DMEM/High Glucose supplemented with 10% FBS (Hyclone) Pen-Strep (Life Technologies) and kept overnight in a humidified atmosphere (5% CO2) at 37° C. The following day, cells were loaded with 20 uL Ca^++ dye (BD Biosciences) using Loading Buffer (HBSS +Ca/+Mg, 20 mM HEPES) and placed back in cell incubator for a minimum of 1 hour. The dye was replaced with 45 μL Assay Buffer (HBSS −Ca/−Mg, 20 mM HEPES) and kept at room temperature prior to running on cell imager. Compounds were prepared in Assay Buffer and 5 uL was added to the cells. The FDSS 7000EX (Hamamatsu) was used to acquire Ca++ traces for 3 minutes from cells treated with 11 point dose in triplicate in order to generate dose response curves in agonist mode. All compounds were serially diluted in DMSO then prepared in Assay Buffer for Ca^++ flux studies. The dose response curves were generated from the average of triplicate wells obtained from each data point and used a non-linear regression of four parameter dose response algorithm. The Percent Activity (PA) was measured to EC100 of Carbachol.
as §4

T2 sequence (P20309 whole entry): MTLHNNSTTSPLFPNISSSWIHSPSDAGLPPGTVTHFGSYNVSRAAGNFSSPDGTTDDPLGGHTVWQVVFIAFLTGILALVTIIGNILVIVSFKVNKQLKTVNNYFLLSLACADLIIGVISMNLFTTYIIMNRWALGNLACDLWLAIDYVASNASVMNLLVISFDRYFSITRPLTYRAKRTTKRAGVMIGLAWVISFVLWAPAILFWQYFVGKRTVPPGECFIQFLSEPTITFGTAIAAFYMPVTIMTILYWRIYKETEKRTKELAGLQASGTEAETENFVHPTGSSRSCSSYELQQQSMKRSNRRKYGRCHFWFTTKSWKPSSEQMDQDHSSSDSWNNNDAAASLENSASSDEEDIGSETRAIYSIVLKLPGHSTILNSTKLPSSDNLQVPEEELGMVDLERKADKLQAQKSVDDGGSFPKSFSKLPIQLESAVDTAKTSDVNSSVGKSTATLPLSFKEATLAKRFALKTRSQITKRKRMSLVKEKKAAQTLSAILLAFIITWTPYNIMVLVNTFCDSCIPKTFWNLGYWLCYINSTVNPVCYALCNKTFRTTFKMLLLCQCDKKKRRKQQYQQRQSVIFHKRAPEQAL

SMILES | M5 FDSS PA % [1] [%] | EC50 [1] [µM] | M3 FDSS PA % [2] [%] | EC50 [2] [µM] | M1 FDSS PA % [3] [%] | EC50 [3] [µM]
CC1(C)C[C@@H](Oc2ccc(F)cc2C2CCN([C@@H]3COC4(C3)CN(c3nnco3)C4)CC2)CO1 (single isomer, unassigned) [Example 2O, (S)-7-(4-(2-(((R)-5,5-dimethyltetrahydrofuran-3-yl)oxy)-5-fluorophenyl)piperidin-1-yl)-2-(1,3,4-oxadiazol-2-yl)-5-oxa-2-azaspiro[3.4]octane or (S)-7-(4-(2-(((S)-5,5-dimethyltetrahydrofuran-3-yl)oxy)-5-fluorophenyl)piperidin-1-yl)-2-(1,3,4-oxadiazol-2-yl)-5-oxa-2-azaspiro[3.4]octane] | 0 | > 25 | 0 | > 25 | 72 | 1.12
Fc1ccc(O[C@H]2CCCOC2)c(C2CCN([C@@H]3COC4(C3)CN(c3nnco3)C4)CC2)c1 (single isomer, unassigned) [Example 2Q, (S)-7-(4-(5-fluoro-2-(((S)-tetrahydro-2H-pyran-3-yl)oxy)phenyl)piperidin-1-yl)-2-(1,3,4-oxadiazol-2-yl)-5-oxa-2-azaspiro[3.4]octane or (S)-7-(4-(5-fluoro-2-(((R)-tetrahydro-2H-pyran-3-yl)oxy)phenyl)piperidin-1-yl)-2-(1,3,4-oxadiazol-2-yl)-5-oxa-2-azaspiro[3.4]octane] | 0 | > 25 | 0 | > 25 | 80 | 2.02
Fc1ccc(O[C@H]2CCCOC2)c(C2CCN([C@@H]3COC4(C3)CN(c3nnco3)C4)CC2)c1 (single isomer, unassigned) [Example 2R, (S)-7-(4-(5-fluoro-2-(((S)-tetrahydro-2H-pyran-3-yl)oxy)phenyl)piperidin-1-yl)-2-(1,3,4-oxadiazol-2-yl)-5-oxa-2-azaspiro[3.4]octane or (S)-7-(4-(5-fluoro-2-(((R)-tetrahydro-2H-pyran-3-yl)oxy)phenyl)piperidin-1-yl)-2-(1,3,4-oxadiazol-2-yl)-5-oxa-2-azaspiro[3.4]octane] | 0 | > 25 | 0 | > 25 | 56 | 0.848
CC(C)(O)[C@H]1C[C@H](Oc2ccc(F)cc2C2CCN([C@@H]3COC4(C3)CN(c3nnco3)C4)CC2)C1 (single isomer, unassigned) [Example 2V, 2-((1S,3r)-3-(2-(1-((S)-2-(1,3,4-oxadiazol-2-yl)-5-oxa-2-azaspiro[3.4]octan-7-yl)piperidin-4-yl)-4-fluorophenoxy)cyclobutyl)propan-2-ol or 2-((1R,3s)-3-(2-(1-((S)-2-(1,3,4-oxadiazol-2-yl)-5-oxa-2-azaspiro[3.4]octan-7-yl)piperidin-4-yl)-4-fluorophenoxy)cyclobutyl)propan-2-ol] | 0 | > 25 | 0 | > 25 | 31 | 1.65
CC(C)(O)[C@H]1C[C@H](Oc2ccc(F)cc2C2CCN([C@@H]3COC4(C3)CN(c3nnco3)C4)CC2)C1 (single isomer, unassigned) [Example 2W, 2-((1S,3r)-3-(2-(1-((S)-2-(1,3,4-oxadiazol-2-yl)-5-oxa-2-azaspiro[3.4]octan-7-yl)piperidin-4-yl)-4-fluorophenoxy)cyclobutyl)propan-2-ol or 2-((1R,3s)-3-(2-(1-((S)-2-(1,3,4-oxadiazol-2-yl)-5-oxa-2-azaspiro[3.4]octan-7-yl)piperidin-4-yl)-4-fluorophenoxy)cyclobutyl)propan-2-ol] | 0 | > 25 | 0 | > 25 | 66 | 3.44
C[C@H](Oc1ccc(F)cc1C1CCN([C@@H]2COC3(C2)CN(c2nnco2)C3)CC1)C1CCOCC1 (single isomer, unassigned) [Example 2Y, (S)-7-(4-(5-fluoro-2-((S)-1-(tetrahydro-2H-pyran-4-yl)ethoxy)phenyl)piperidin-1-yl)-2-(1,3,4-oxadiazol-2-yl)-5-oxa-2-azaspiro[3.4]octane or (S)-7-(4-(5-fluoro-2-((R)-1-(tetrahydro-2H-pyran-4-yl)ethoxy)phenyl)piperidin-1-yl)-2-(1,3,4-oxadiazol-2-yl)-5-oxa-2-azaspiro[3.4]octane] | 13 | 9.46 | 0 | > 25 | 51 | 10.8
c1ccc([C@@H]2CCOC2)c(C2CCN([C@@H]3COC4(C3)CN(c3nnco3)C4)CC2)c1 (single isomer, unassigned) [Example 3A, (S)-2-(1,3,4-oxadiazol-2-yl)-7-(4-(2-((S)-tetrahydrofuran-3-yl)phenyl)piperidin-1-yl)-5-oxa-2-azaspiro[3.4]octane or (S)-2-(1,3,4-oxadiazol-2-yl)-7-(4-(2-((R)-tetrahydrofuran-3-yl)phenyl)piperidin-1-yl)-5-oxa-2-azaspiro[3.4]octane] | 0 | > 25 | 0 | > 25 | 85 | 1.11

— patent US11485742B2, “2-azaspiro[3.4]octane derivatives as M4 agonists” (NOVARTIS AG, priority 2019, dated 2022)
